The target of one assay is T1, TYK2 JH2 (Homo sapiens, UniProt P29597).
T1 construct: purchased DiscoverX (KINOMEscan KdELECT service); host or cells: E. coli BL21-derived (T7 phage display) or HEK-293
Kind of assay: TYK2 JH2 binding assay (KINOMEscan KdELECT competitive binding). The conditions noted are these: TYK2 JH2 domain, KINOMEscan KdELECT (Assay A). In outline:
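Beads carrying a biotinylated ligand were mixed with tagged JH2 kinase and compound (11 points, 3-fold steps, 0.9% DMSO) and shaken 1 h at room temperature. After washing, kinase was released with 0.5 μM untagged ligand over 30 min and measured by qPCR to derive Kd.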

In assay [1] the test system is JAK1/TYK2 pSTAT5 (Tyr694/699) in THP-1 cell line. Put plainly: IFNa-stimulated JAK1/TYK2 pSTAT5 (Tyr694/699) inhibition cellular assay, AlphaLISA. The conditions noted are these: THP-1 cells, AlphaLISA (Assay B). In kind it is cell-based. In outline:
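THP-1 cells (2e4/well in HBSS) were preincubated with compound (8 points, 6-fold steps from 10000 nM final) for 1 h at 37 °C, then stimulated with IFNa (added at 100 ng/mL) for 30 min. Lysate pSTAT5 was read by AlphaLISA at 615 nm. IC50 came from a 4-parameter fit with bottom 0 and Hill −1.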
In general terms: Bead proximity is the source of the signal in Alpha formats.

[2] abbreviates: read-out: Biochemical TYK2_DiscoverX_JH2_BND_Kd.
Where [3] appears, read: Homo sapiens, IFNa-stimulated, read-out: Cellular_THP1_IFNa-pSTATS_TYK2.
The mark [4] stands for this setting: Homo sapiens, IFNa-stimulated pSTAT5 (Tyr694/699), read-out: Cellular_THP1_IFNa-pSTATS_TYK2.
The mark [5] stands for this setting: IFNa-stimulated pSTAT5 (Tyr694/699), read-out: Cellular_THP1_IFNa-pSTATS_TYK2.
[6] abbreviates: read-out: Biochemical TYK2_JH2_Kd.
Setting [7] is: Homo sapiens, IFNa-stimulated, read-out: Cellular THP1_IFNa-pSTATS_IC50.

pIC50, pKd: −log10 of the molar value. Read-outs that look alike come from different tables or passages of the source.

T1 sequence (P29597 589-875 limits assumed): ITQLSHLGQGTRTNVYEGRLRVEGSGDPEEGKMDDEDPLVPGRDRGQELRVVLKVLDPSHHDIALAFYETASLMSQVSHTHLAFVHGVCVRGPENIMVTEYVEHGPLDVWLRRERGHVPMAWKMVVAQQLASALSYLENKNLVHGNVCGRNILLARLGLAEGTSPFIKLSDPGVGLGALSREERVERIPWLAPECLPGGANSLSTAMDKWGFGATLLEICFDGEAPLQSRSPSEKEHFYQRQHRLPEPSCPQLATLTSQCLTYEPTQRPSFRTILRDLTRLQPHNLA

Consider `CNc1ncc(C#Cc2ccc(OC)cn2)c2cc(NC(=O)[C@@H]3C[C@@H]3CF)ncc12` (single isomer, unassigned) [Example 823], for which the pKd on TYK2 JH2 (setting [2]) was no less than 7.00. For the same compound, the pIC50 in assay [1] (setting [3]) was no less than 6.30.
The matching figures for `CNc1ncc(-c2nc3cc(N4CCO[C@H](COC)C4)ccc3o2)c2cc(NC(=O)C3CC3)ncc12` (single isomer, unassigned) [Example 919]: no less than 7.00 and no less than 6.30.
Regarding `CNc1ncc(-c2nc3cc(N4CCO[C@@H](COC)C4)ccc3o2)c2cc(NC(=O)C3CC3)ncc12` (single isomer, unassigned) [Example 920], the pKd at TYK2 JH2 (setting [2]) is no less than 7.00. The pIC50 in assay [1] (setting [3]) was no less than 6.30.
In the case of `CNc1ncc(-c2nc3cc(N4CCO[C@@H](C(F)(F)F)C4)ccc3o2)c2cc(NC(=O)C3CC3)ncc12` (single isomer, unassigned) [Example 922], the pKd at TYK2 JH2 (setting [2]) is no less than 7.00. The pIC50 in assay [1] (setting [3]) was no less than 6.30.
The matching figures for `CNc1ncc(-c2nc3cc(N4CCO[C@H](C(F)(F)F)C4)ccc3o2)c2cc(NC(=O)C3CC3)ncc12` (single isomer, unassigned) [Example 923]: no less than 7.00 and no less than 6.30.
The matching figures for `CNc1ncc(-c2nc3cc(N4CCO[C@@H](C(C)(C)O)C4)ccc3o2)c2cc(NC(=O)C3CC3)ncc12` (single isomer, unassigned) [Example 925]: no less than 7.00 and no less than 6.30.
For `CNc1ncc(-c2nc3cc(N4CCO[C@H](C(C)(C)O)C4)ccc3o2)c2cc(NC(=O)C3CC3)ncc12` (single isomer, unassigned) [Example 926] the same measures were no less than 7.00 and no less than 6.30.
As for `CNc1ncc(-c2nc3cc(N4CCO[C@H](C(F)F)C4)ccc3o2)c2cc(NC(=O)C3CC3)ncc12` (single isomer, unassigned) [Example 935], the pKd at TYK2 JH2 (setting [2]) was no less than 7.00. Besides, in assay [1] (setting [3]), the pIC50 is no less than 6.30.
With `CNc1ncc(-c2nc3cc(N4CCO[C@@H](C(F)F)C4)ccc3o2)c2cc(NC(=O)C3CC3)ncc12` (single isomer, unassigned) [Example 936], the pKd on TYK2 JH2 (setting [2]) is no less than 7.00. For the same compound, the pIC50 in assay [1] (setting [3]) is no less than 6.30.
For `CNc1ncc(-c2nc3cc(N4CC[C@@H](F)C4)ccc3o2)c2cc(NC(=O)C3CC3)ncc12` (single isomer, unassigned) [Example 944] the same measures were no less than 7.00 and no less than 6.30.
For `CNc1ncc(-c2nc3cc(N4CC[C@H](F)C4)ccc3o2)c2cc(NC(=O)C3CC3)ncc12` (single isomer, unassigned) [Example 945] the same measures were no less than 7.00 and no less than 6.30.
For the compound `CNc1ncc(-c2nc3cc(C4(C)CCCO4)ccc3o2)c2cc(NC(=O)C3CC3)ncc12` (single isomer, unassigned) [Example 949], the pKd at TYK2 JH2 (setting [2]) is no less than 7.00. Also, the pIC50 in assay [1] (setting [3]) is no less than 6.30.
Regarding `CNc1ncc(C#Cc2ccc3c(c2)CC[C@H](CO)O3)c2cc(NC(=O)C3CC3)ncc12` (single isomer, unassigned) [Example 982], the pKd at TYK2 JH2 (setting [2]) is no less than 7.00. Further, the pIC50 in assay [1] (setting [3]) was no less than 6.30.
Regarding `CNc1ncc(C#Cc2ccc3c(c2)CC[C@@H](CO)O3)c2cc(NC(=O)C3CC3)ncc12` (single isomer, unassigned) [Example 983], on TYK2 JH2 (setting [2]), the pKd is no less than 7.00. Further, the pIC50 in assay [1] (setting [3]) was no less than 6.30.
Take `CNc1ncc(C#Cc2ccc3c(c2)CC[C@H](COC)O3)c2cc(NC(=O)C3CC3)ncc12` (single isomer, unassigned) [Example 988]: the pKd on TYK2 JH2 (setting [2]) is no less than 7.00. In assay [1] (setting [3]), the pIC50 was no less than 6.30.
Take `CNc1ncc(C#Cc2ccc3c(c2)CC[C@@H](COC)O3)c2cc(NC(=O)C3CC3)ncc12` (single isomer, unassigned) [Example 989]: the pKd on TYK2 JH2 (setting [2]) is no less than 7.00. Further, in assay [1] (setting [3]), the pIC50 is no less than 6.30.
The matching figures for `CNc1ncc(-c2nc3ccc(N4CCOCC4)cn3n2)c2cc(NC(=O)[C@@H]3CC3(F)F)ncc12` (single isomer, unassigned) [Example 994]: no less than 7.00 and no less than 6.30.
As to `CNc1ncc(-c2nc3ccc(N4CCOC(COC)C4)cn3n2)c2cc(NC(=O)C3CC3)ncc12` (single isomer, unassigned) [Example 1023], at TYK2 JH2 (setting [2]), the pKd was no less than 7.00. Also, in assay [1] (setting [4]), the pIC50 is no less than 6.30.
Take `CNc1ncc(-c2nc3ccc(N4CCOC(COC)C4)cn3n2)c2cc(NC(=O)C3CC3)ncc12` (single isomer, unassigned) [Example 1024]: the pKd on TYK2 JH2 (setting [2]) was no less than 7.00. For the same compound, the pIC50 in assay [1] (setting [5]) was no less than 6.30.
Consider `CNc1ncc(-c2nc3ccc(N4CCO[C@@H]([C@H](C)O)C4)cn3n2)c2cc(NC(=O)C3CC3)ncc12` (single isomer, unassigned) [Example 1044], for which the pKd at TYK2 JH2 (setting [2]) was no less than 7.00. In addition, the pIC50 in assay [1] (setting [4]) is no less than 6.30.
For `CNc1ncc(-c2nc3ccc(N4CCO[C@H]([C@@H](C)O)C4)cn3n2)c2cc(NC(=O)C3CC3)ncc12` (single isomer, unassigned) [Example 1045], the pKd at TYK2 JH2 (setting [2]) is no less than 7.00. Further, the pIC50 in assay [1] (setting [4]) was no less than 6.30.
Consider `CNc1ncc(-c2nc3ccc(N4CCO[C@@H]([C@@H](C)O)C4)cn3n2)c2cc(NC(=O)C3CC3)ncc12` (single isomer, unassigned) [Example 1046], for which the pKd on TYK2 JH2 (setting [2]) is no less than 7.00. The pIC50 in assay [1] (setting [4]) is no less than 6.30.
For `CNc1ncc(-c2nc3ccc(N4CCO[C@H]([C@H](C)O)C4)cn3n2)c2cc(NC(=O)C3CC3)ncc12` (single isomer, unassigned) [Example 1047] the same measures were no less than 7.00 and no less than 6.30.
The matching figures for `CNc1ncc(-c2nc3ccc(N4CCOC(C(C)(C)F)C4)cn3n2)c2cc(NC(=O)C3CC3)ncc12` (single isomer, unassigned) [Example 1049]: no less than 7.00 and no less than 6.30.
Consider `CNc1ncc(-c2nc3ccc(N4CCOC(C(C)(C)F)C4)cn3n2)c2cc(NC(=O)C3CC3)ncc12` (single isomer, unassigned) [Example 1050], for which the pKd at TYK2 JH2 (setting [2]) was no less than 7.00. In addition, the pIC50 in assay [1] (setting [5]) was no less than 6.30.
As for `CNc1ncc(-c2nc3cc(N4CCOCC4)ccc3o2)c2cc(NC(=O)[C@H]3C[C@H]3C(F)F)ncc12` (single isomer, unassigned) [Example 1064], the pKd on TYK2 JH2 (setting [2]) was no less than 7.00. Moreover, in assay [1] (setting [4]), the pIC50 is no less than 6.30.
In the case of `CNc1ncc(-c2nc3cc(N4CCOCC4)ccc3o2)c2cc(NC(=O)[C@@H]3C[C@@H]3C(F)(F)F)ncc12` (single isomer, unassigned) [Example 1066], the pKd on TYK2 JH2 (setting [2]) was no less than 7.00. In assay [1] (setting [4]), the pIC50 was no less than 6.30.
`CNc1ncc(-c2nc3cc(N4CCOCC4)ccc3o2)c2cc(NC(=O)[C@@H]3C[C@@H]3C(F)(F)F)ncc12` (single isomer, unassigned) [Example 1067]: the pKd at TYK2 JH2 (setting [2]) was no less than 7.00. Further, in assay [1] (setting [5]), the pIC50 was no less than 6.30.
For the compound `CNc1ncc(-c2nc3cc(N4CCOCC4)ccc3o2)c2cc(NC(=O)[C@@H]3C[C@@H]3C(F)F)ncc12` (single isomer, unassigned) [Example 1069], the pKd on TYK2 JH2 (setting [2]) was no less than 7.00. In assay [1] (setting [4]), the pIC50 was no less than 6.30.
The matching figures for `CNc1ncc(C#Cc2ccc(N3CCOCC3)cc2)c2cc(NC(=O)[C@@H]3C[C@@H]3C(F)F)ncc12` (single isomer, unassigned) [Example 1074]: no less than 7.00 and no less than 6.30.
With `CNc1ncc(C#Cc2ccc(N3CCOCC3)cc2)c2cc(NC(=O)[C@H]3C[C@H]3C(F)F)ncc12` (single isomer, unassigned) [Example 1075], the pKd at TYK2 JH2 (setting [2]) was no less than 7.00. In addition, the pIC50 in assay [1] (setting [4]) is no less than 6.30.
The matching figures for `CC[C@@H]1CN(c2ccc3nc(-c4cnc(NC)c5cnc(NC(=O)[C@H]6C[C@H]6C)cc45)nn3c2)CCO1` (single isomer, unassigned) [Example 1078]: no less than 7.00 and no less than 6.30.
With `CC[C@H]1CN(c2ccc3nc(-c4cnc(NC)c5cnc(NC(=O)[C@H]6C[C@H]6C)cc45)nn3c2)CCO1` (single isomer, unassigned) [Example 1079], at TYK2 JH2 (setting [2]), the pKd was no less than 7.00. Further, in assay [1] (setting [4]), the pIC50 was no less than 6.30.
As for `CNc1ncc(-c2nc3ccc(N4CCOCC4)cn3n2)c2cc(NC(=O)[C@H]3CC3(F)F)ncc12` (single isomer, unassigned) [Example 1141], the pKd at TYK2 JH2 (setting [2]) is no less than 7.00. Also, the pIC50 in assay [1] (setting [4]) is no less than 6.30.
`CNc1ncc(-c2ccccc2)c2cc(NC(=O)C3CC3)ncc12` [Example 1, N-(8-(methylamino)-5-phenyl-2,7-naphthyridin-3-yl)cyclopropanecarboxamide]: the pKd at TYK2 JH2 (setting [6]) is no less than 7.00. The pIC50 in assay [1] (setting [7]) is less than 6.30.
For `CNc1nccc2cc(NC(=O)C3CC3)ncc12` [Example 2, N-(8-(methylamino)-2,7-naphthyridin-3-yl)cyclopropanecarboxamide] the same measures were 6.00 to 7.00 and less than 6.30.
For `CNc1ncc(Br)c2cc(NC(=O)C3CC3)ncc12` [Example 3, N-(5-bromo-8-(methylamino)-2,7-naphthyridin-3-yl)cyclopropanecarboxamide] the same measures were no less than 7.00 and less than 6.30.

These data come from US20240025906A1 (NEURON23, INC., priority 2022, published 2024).
